Assay results as given in patent publication US9994590B2, “Substituted [1,2,4]triazolo[1,5-a]pyrazines as phosphodiesterase inhibitors” (Sunovion Pharamaceuticals Inc., priority 2012, dated 2018).

target: recombinant human PDE-10 enzyme (human PDE-10A) (Homo sapiens (Human), UniProt Q9Y233); test: human PDE-10 inhibition assay (Molecular Devices IMAP PDE Fluorescence Polarization, enzyme assay IC50); format: biochemical; conditions: Fluorescein-labeled cAMP/cGMP substrate, 40-minute incubation at 37° C.
Experimental: In one embodiment, the compounds provided herein were assayed for their ability to inhibit human PDE-10A. In one embodiment, the activities of the compounds were determined using the Molecular Devices IMAP PDE Fluorescence Polarization assay using recombinant human PDE-10 enzyme expressed in a baculoviral system. Briefly, 10 μL of a compound (0.2 nM-20 μM) was added to either a 96-well half area black plate or a 384-well black plate along with 10 μL of Fluorescein-labeled cAMP/cGMP substrate as per manufacturer's instructions and 10 μL of PDE enzyme (activity 0.1 U). Following a 40-minute incubation at 37° C., 60 μL of IMAP binding reagent was added. The plate was then read on a Perkin Elmer Victor (480-535 nm). The data was analyzed using Prism Software (GraphPad Inc, San Diego, Calif.).

recombinant human PDE-10 enzyme (human PDE-10A), sequence (Q9Y233 whole entry): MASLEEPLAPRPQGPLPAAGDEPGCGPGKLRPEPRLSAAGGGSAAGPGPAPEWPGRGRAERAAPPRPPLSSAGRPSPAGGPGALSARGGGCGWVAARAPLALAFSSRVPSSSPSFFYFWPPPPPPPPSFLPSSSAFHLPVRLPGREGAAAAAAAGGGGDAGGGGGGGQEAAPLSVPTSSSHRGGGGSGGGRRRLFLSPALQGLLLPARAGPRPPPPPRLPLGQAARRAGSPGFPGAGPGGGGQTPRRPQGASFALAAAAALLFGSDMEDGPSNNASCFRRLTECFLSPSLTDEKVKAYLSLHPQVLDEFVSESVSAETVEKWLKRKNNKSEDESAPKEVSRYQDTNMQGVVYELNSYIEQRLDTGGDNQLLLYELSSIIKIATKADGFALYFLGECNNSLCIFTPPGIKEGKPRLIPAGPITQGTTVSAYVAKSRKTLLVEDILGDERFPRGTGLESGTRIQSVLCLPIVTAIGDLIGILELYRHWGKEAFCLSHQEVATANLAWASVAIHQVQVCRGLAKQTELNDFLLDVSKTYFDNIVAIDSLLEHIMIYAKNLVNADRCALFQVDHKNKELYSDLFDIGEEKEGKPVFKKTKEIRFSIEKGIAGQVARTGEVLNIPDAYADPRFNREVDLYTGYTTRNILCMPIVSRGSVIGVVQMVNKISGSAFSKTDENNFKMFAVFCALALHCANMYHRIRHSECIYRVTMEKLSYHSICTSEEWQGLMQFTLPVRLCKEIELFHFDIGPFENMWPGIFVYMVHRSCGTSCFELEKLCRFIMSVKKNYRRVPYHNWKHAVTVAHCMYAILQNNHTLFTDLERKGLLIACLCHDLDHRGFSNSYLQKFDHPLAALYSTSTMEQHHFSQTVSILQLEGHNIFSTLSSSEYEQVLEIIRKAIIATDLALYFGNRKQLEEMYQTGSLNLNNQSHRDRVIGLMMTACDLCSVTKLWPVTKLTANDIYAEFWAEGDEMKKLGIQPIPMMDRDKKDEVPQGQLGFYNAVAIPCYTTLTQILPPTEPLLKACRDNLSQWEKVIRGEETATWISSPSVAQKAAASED

| Compound | IC50 |
| --- | --- |
| Cc1ncc(C)n2nc(C3CC3c3nc4c5cccc(F)c5ccn4c3C)nc12 (racemic) [Compound 30, (±)-2-(2-(5,8-dimethyl-[1,2,4]triazolo[1,5-a]pyrazin-2-yl)cyclopropyl)-7-fluoro-3-methylimidazo[2,1-a]isoquinoline] | 10 to 100 nM |
| Cc1cc2nc(C3CC3c3nc4c(C)ncc(C)n4n3)c(C)n2cc1F (racemic) [Compound 33, (±)-2-(2-(6-fluoro-3,7-dimethylimidazo[1,2-a]pyridin-2-yl)cyclopropyl)-5,8-dimethyl-[1,2,4]triazolo[1,5-a]pyrazine] | 100 to 500 nM |
| Cc1ncc(C)n2nc(C3CC3c3nc4c5c(ccn4c3C)OCCO5)nc12 (racemic) [Compound 35, (±)-9-(2-(5,8-dimethyl-[1,2,4]triazolo[1,5-a]pyrazin-2-yl)cyclopropyl)-8-methyl-2,3-dihydro-[1,4]dioxino[2,3-c]imidazo[1,2-a]pyridine] | 10 to 100 nM |
| Cc1ncc(C)n2nc(C3CCC3c3cn4ccc5c(c4n3)OCCO5)nc12 (racemic) [Compound 38, (±)-9-(2-(5,8-dimethyl-[1,2,4]triazolo[1,5-a]pyrazin-2-yl)cyclobutyl)-2,3-dihydro-[1,4]dioxino[2,3-c]imidazo[1,2-a]pyridine] | 100 to 500 nM |
| Cc1ncc(C)n2nc(C3CC3c3cn4ccc5c(c4n3)OCCO5)nc12 (racemic) [Compound 39, (±)-9-(2-(5,8-dimethyl-[1,2,4]triazolo[1,5-a]pyrazin-2-yl)cyclopropyl)-2,3-dihydro-[1,4]dioxino[2,3-c]imidazo[1,2-a]pyridine] | 10 to 100 nM |
| Cc1ncc(C)n2nc(C3CCC3c3nc4c5cccnc5ccc4n3C)nc12 (racemic) [Compound 40, (±)-2-(2-(5,8-dimethyl-[1,2,4]triazolo[1,5-a]pyrazin-2-yl)cyclobutyl)-3-methyl-3H-imidazo[4,5-f]quinoline] | > 500 nM |
| COc1ccn2c(C)c(C3CCC3c3nc4c(C)ncc(C)n4n3)nc2c1 (racemic) [Compound 43, (±)-2-(2-(7-methoxy-3-methylimidazo[1,2-a]pyridin-2-yl)cyclobutyl)-5,8-dimethyl-[1,2,4]triazolo[1,5-a]pyrazine] | > 500 nM |
| Cc1ncc(C)n2cc(C3CC3c3nc4c(C)ncc(C)n4n3)nc12 (racemic) [Compound 45, (±)-2-(2-(5,8-dimethylimidazo[1,2-a]pyrazin-2-yl)cyclopropyl)-5,8-dimethyl-[1,2,4]triazolo[1,5-a]pyrazine] | > 500 nM |
| COc1cccc2[nH]c(C3CC3c3nc4c(C)ncc(C)n4n3)nc12 (racemic) [Compound 47, (±)-2-(2-(4-methoxy-1H-benzo[d]imidazol-2-yl)cyclopropyl)-5,8-dimethyl-[1,2,4]triazolo[1,5-a]pyrazine] | 100 to 500 nM |
| Fc1ccn2cc(C3CCC3c3cn4cccc(Cl)c4n3)nc2c1 (racemic) [Compound 58, (±)-8-chloro-2-(2-(7-fluoroimidazo[1,2-a]pyridin-2-yl)cyclobutyl)imidazo[1,2-a]pyridine] | > 500 nM |
| Cn1c([C@H]2C[C@@H]2c2ccc3ccccc3n2)nc2c3cccnc3ccc21 (single isomer, unassigned) [Compound 21] | 10 to 100 nM |
| Cn1c([C@@H]2C[C@H]2c2ccc3ccccc3n2)nc2c3cccnc3ccc21 (single isomer, unassigned) [Compound 22] | 100 to 500 nM |
| Cc1ncc(C)n2nc([C@H]3C[C@@H]3c3nc4c5cccnc5ccn4c3C)nc12 (single isomer, unassigned) [Compound 26] | 100 to 500 nM |
| Cc1ncc(C)n2nc([C@@H]3C[C@H]3c3nc4c5cccnc5ccn4c3C)nc12 (single isomer, unassigned) [Compound 27] | ≤ 10 nM |
| Cc1ncc(C)n2nc(C3CC3c3nc4c5cccnc5ccn4c3C)nc12 (stereo not shown) [Compound 1, 2-(2-(5,8-Dimethyl-[1,2,4]triazolo[1,5-a]pyrazin-2-yl)cyclopropyl)-3-methylimidazo[2,1-f][1,6]naphthyridine] | ≤ 10 nM |
| Cc1ncc(C)n2nc(C3CC3c3nc4c5ccccc5ccn4c3C)nc12 (stereo not shown) [Compound 3] | ≤ 10 nM |
| Cc1ccn2c(C)c(C3CC3c3nc4c(C)ncc(C)n4n3)nc2c1 (stereo not shown) [Compound 6, 2-(2-(3,7-Dimethylimidazo[1,2-a]pyridin-2-yl)cyclopropyl)-5,8-dimethyl-[1,2,4]triazolo[1,5-a]pyrazine] | 100 to 500 nM |
| Cc1ccn2c(C)c(C3CC3c3cn4ccc(F)cc4n3)nc2c1 (stereo not shown) [Compound 7, 2-(2-(7-Fluoroimidazo[1,2-a]pyridin-2-yl)cyclopropyl)-3,7-dimethylimidazo[1,2-a]pyridine] | > 500 nM |
| Cc1cccn2cc(C3CC3c3cn4cccc(C)c4n3)nc12 (stereo not shown) [Compound 8, 1,2-Bis(8-methylimidazo[1,2-a]pyridin-2-yl)cyclopropane] | > 500 nM |
| Fc1ccn2cc(C3CC3c3cn4ccc(F)cc4n3)nc2c1 (stereo not shown) [Compound 9] | > 500 nM |
| Fc1cccn2cc(C3CC3c3cn4cccc(F)c4n3)nc12 (stereo not shown) [Compound 10] | > 500 nM |

Other lines, results leading:

| IC50 | Compound |
| --- | --- |
| 100 to 500 nM | Cc1ncc(C)n2nc(C3CC3c3nc4c(OC(F)F)cccn4c3C)nc12 (racemic) [Compound 31, (±)-2-(2-(8-(difluoromethoxy)-3-methylimidazo[1,2-a]pyridin-2-yl)cyclopropyl)-5,8-dimethyl-[1,2,4]triazolo[1,5-a]pyrazine] |
| 10 to 100 nM | CCOc1cccn2c(C)c(C3CC3c3nc4c(C)ncc(C)n4n3)nc12 (racemic) [Compound 32, (±)-2-(2-(8-ethoxy-3-methylimidazo[1,2-a]pyridin-2-yl)cyclopropyl)-5,8-dimethyl-[1,2,4]triazolo[1,5-a]pyrazine] |
| 10 to 100 nM | COc1cc(F)cn2c(C)c(C3CC3c3nc4c(C)ncc(C)n4n3)nc12 (racemic) [Compound 34, (±)-2-(2-(6-fluoro-8-methoxy-3-methylimidazo[1,2-a]pyridin-2-yl)cyclopropyl)-5,8-dimethyl-[1,2,4]triazolo[1,5-a]pyrazine] |
| 10 to 100 nM | COc1cc(C)cn2c(C)c(C3CC3c3nc4c(C)ncc(C)n4n3)nc12 (racemic) [Compound 36, (±)-2-(2-(8-methoxy-3,6-dimethylimidazo[1,2-a]pyridin-2-yl)cyclopropyl)-5,8-dimethyl-[1,2,4]triazolo[1,5-a]pyrazine] |
| 10 to 100 nM | COc1cc(OC)c2nc(C3CC3c3nc4c(C)ncc(C)n4n3)c(C)n2c1 (racemic) [Compound 37, (±)-2-(2-(6,8-dimethoxy-3-methylimidazo[1,2-a]pyridin-2-yl)cyclopropyl)-5,8-dimethyl-[1,2,4]triazolo[1,5-a]pyrazine] |
| > 500 nM | COc1cccn2c(C)c(C3CCC3c3nc4c(C)ncc(C)n4n3)nc12 (racemic) [Compound 42, (±)-2-(2-(8-methoxy-3-methylimidazo[1,2-a]pyridin-2-yl)cyclobutyl)-5,8-dimethyl-[1,2,4]triazolo[1,5-a]pyrazine] |
| 10 to 100 nM | COc1cc(C)cn2c(F)c(C3CC3c3nc4c(C)ncc(C)n4n3)nc12 (racemic) [Compound 44, (±)-2-(2-(3-fluoro-8-methoxy-6-methylimidazo[1,2-a]pyridin-2-yl)cyclopropyl)-5,8-dimethyl-[1,2,4]triazolo[1,5-a]pyrazine] |
| 100 to 500 nM | COc1cccc2c1nc(C1CC1c1nc3c(C)ncc(C)n3n1)n2C (racemic) [Compound 46, (±)-2-(2-(4-methoxy-1-methyl-1H-benzo [d]imidazol-2-yl)cyclopropyl)-5,8-dimethyl-[1,2,4]triazolo[1,5-a]pyrazine] |
| 10 to 100 nM | Cc1ncc(C)n2nc(C3CC3c3nc4c5c(ccn4c3F)OCCO5)nc12 (racemic) [Compound 48, (±)-9-(2-(5,8-dimethyl-[1,2,4]triazolo[1,5-a]pyrazin-2-yl)cyclopropyl)-8-fluoro-2,3-dihydro-[1,4]dioxino[2,3-c]imidazo[1,2-a]pyridine] |
| 10 to 100 nM | COc1cccn2c(F)c(C3CC3c3nc4c(C)ncc(C)n4n3)nc12 (racemic) [Compound 55, (±)-2-(2-(3-fluoro-8-methoxyimidazo[1,2-a]pyridin-2-yl)cyclopropyl)-5,8-dimethyl-[1,2,4]triazolo[1,5-a]pyrazine] |
| 100 to 500 nM | COc1cccn2cc(C3CC3c3nc4c(C)ncc(C)n4n3)nc12 (racemic) [Compound 59, (±)-2-(2-(8-methoxyimidazo[1,2-a]pyridin-2-yl)cyclopropyl)-5,8-dimethyl-[1,2,4]triazolo[1,5-a]pyrazine] |
| > 500 nM | COc1cccn2c(F)c([C@@H]3C[C@H]3c3nc4c(C)ncc(C)n4n3)nc12 (single isomer, unassigned) [Compound 56, 2-(2-(3-fluoro-8-methoxyimidazo[1,2-a]pyridin-2-yl)cyclopropyl)-5,8-dimethyl-[1,2,4]triazolo[1,5-a]pyrazine] |
| 10 to 100 nM | COc1cccn2c(F)c([C@@H]3C[C@H]3c3nc4c(C)ncc(C)n4n3)nc12 (single isomer, unassigned) [Compound 57, 2-(2-(3-fluoro-8-methoxyimidazo[1,2-a]pyridin-2-yl)cyclopropyl)-5,8-dimethyl-[1,2,4]triazolo[1,5-a]pyrazine] |
| > 500 nM | COc1ccn2cc(C3CC3c3nc4c(C)ncc(C)n4n3)nc2c1C (stereo not shown) [Compound 2, 2-(2-(7-Methoxy-8-methylimidazo[1,2-a]pyridin-2-yl)cyclopropyl)-5,8-dimethyl-[1,2,4]triazolo[1,5-a]pyrazine] |
| > 500 nM | Cc1ncc(C)n2nc(C3CC3c3nc4cc(F)ccn4c3C)nc12 (stereo not shown) [Compound 4] |
| 10 to 100 nM | Cc1ncc(C)n2nc(C3CC3c3nc4c(C5CC5)cccn4c3C)nc12 (stereo not shown) [Compound 5, 2-(2-(8-Cyclopropyl-3-methylimidazo[1,2-a]pyridin-2-yl)cyclopropyl)-5,8-dimethyl-[1,2,4]triazolo[1,5-a]pyrazine] |
